These results are taken from patent publication US8673911B2, “Inhibitors of histone deacetylase” (MethylGene Inc., priority 2007, dated 2014).

This assay has as its target one or more of HDAC4, HDAC5, HDAC6, HDAC7, HDAC8, HDAC9 and HDAC11. Briefly: Inhibition of histone deacetylase enzymatic activity (fluorogenic Boc-Lys(Ac)-AMC / Boc-Lys(trifluoroacetyl)-AMC substrate). The assay is classed as biochemical. Particulars: against one or more of HDAC4, HDAC5, HDAC6, HDAC7, HDAC8, HDAC9 and HDAC11. The procedure:
Inhibition of HDAC-1,2,3,6 and 8
The following protocol is used to assay the compounds of the invention. In the assay, the buffer used is 25 mM HEPES, pH 8.0, 137 mM NaCl, 2.7 mM KCl, 1 mM MgCl2 and the substrate is Boc-Lys(Ac)-AMC in a 50 mM stock solution in DMSO. The enzyme stock solution is 4.08 μg/mL in buffer.
The compounds are pre-incubated (2 μl, in DMSO diluted to […] in buffer for transfer to assay plate) with enzyme (20 μL of 4.08 μg/mL) for 10 minutes at room temperature (35 μL pre-incubation volume). The mixture is pre-incubated for 5 minutes at room temperature. The reaction is started by bringing the temperature to 37° C. and adding 15 μL substrate. Total reaction volume is 50 μL. The reaction is stopped after 20 minutes by addition of 50 μL developer, prepared as directed by Biomol (FLUOR DE LYS™ developer, Cat. # KI-105). A plate is incubated in the dark for 10 minutes at room temperature before reading (λEx=360 nm, λEm=470 nm, Cutoff filter at 435 nm).
Inhibition of Class II HDAC and HDAC-11
A 30 mM stock of Boc-Lys(trifluoroacetyl)-AMC substrate is prepared in DMSO. 2 μL test compound in DMSO is diluted to 50 μL in buffer (25 mM HEPES, pH 8.0, 137 mM NaCl, 2.7 mM KCl, 1 mM MgCl2, 0.1% BSA) and pre-incubated with HDAC enzyme (30 μL of a final enzyme concentration of 0.1-0.2 nM) for 10 minutes at room temperature. Reaction is started by adding 18 μL Boc-Lys(trifluoroacetyl)-AMC substrate and incubating at 37° C. for 20-30 minutes. The reaction is stopped by adding 50 μL trypsin (1 mg/mL) and a known HDAC inhibitor. The plate is then incubated in the dark for 20 minutes at room temperature and read with Ex=360 nm, Em=470 nm, cutoff filter at 435 nm.

A value given as a limit tells only on which side of the number the result lay.

For `O=C(NO)c1sc(-c2ccc(OCCN3CCOCC3)cc2)nc1-c1ccccc1` [Compound 146, N-hydroxy-2-(4-(2-morpholinoethoxy)phenyl)-4-phenylthiazole-5-carboxamide], the IC50 (as a rule, the point on the concentration scale where inhibition reaches its midpoint) is less than 250 nM.

For `O=C(NO)c1sc(-c2ccncc2)nc1-c1ccccc1` [Compound 122, N-hydroxy-4-phenyl-2-(pyridin-4-yl)thiazole-5-carboxamide], the IC50 was less than 250 nM.

On to `O=C(NO)c1sc(-c2ccccn2)nc1-c1ccccc1` [Compound 153, N-hydroxy-4-phenyl-2-(pyridin-2-yl)thiazole-5-carboxamide], for which the IC50 fell in the range of 250 to 500 nM.

`O=C(NO)c1sc(C2CCN(Cc3ccncc3)CC2)nc1-c1ccccc1` [Compound 144, N-hydroxy-4-phenyl-2-(1-(pyridin-4-ylmethyl)piperidin-4-yl)thiazole-5-carboxamide] gave an IC50 of less than 250 nM.

With `O=C(NO)c1cnc(-c2ccccc2)nc1-c1cccc(F)c1` [Compound 143, 4-(3-fluorophenyl)-N-hydroxy-2-phenylpyrimidine-5-carboxamide], the IC50 was in the range of 250 to 500 nM.

In the case of `Cc1cscc1-c1ccc(C(=O)NO)c(-c2cscc2C)c1` [Compound 51, N-hydroxy-2,4-bis(4-methylthiophen-3-yl)benzamide], the IC50 is less than 250 nM.

With `COc1ccc(S(=O)(=O)Nc2ccc3sc(C(=O)NO)c(-c4ccccc4)c3c2)cc1` [Compound 154, N-hydroxy-5-(4-methoxyphenyl-sulfonamido)-3-phenylbenzo[b] thiophene-2-carboxamide], the IC50 lay within 500 to 750 nM.

On to `O=C(NO)c1sc(-c2ccc3c(c2)CCO3)nc1-c1ccccc1` [Compound 139, 2-(2,3-dihydrobenzofuran-5-yl)-N-hydroxy-4-phenylthiazole-5-carboxamide], for which the IC50 is 750 to 5000 nM.

Turning to `O=C(NO)c1sc(C2CCN(C(=O)N3CCCC3)CC2)nc1-c1ccccc1` [Compound 145, N-hydroxy-4-phenyl-2-(1-(pyrrolidine-1-carbonyl)piperidin-4-yl)thiazole-5-carboxamide], the IC50 was less than 250 nM.

The molecule `O=C(NO)c1sc(-c2ccccc2)cc1-c1ccccc1` [Compound 89, N-hydroxy-3,5-diphenylthiophene-2-carboxamide] displayed a concentration for half-maximal inhibition (IC50) of 250 to 500 nM.

`O=C(NO)c1sc(-c2ccc(N3CCOCC3)cc2)nc1-c1ccccc1` [Compound 109, N-hydroxy-2-(4-morpholino-phenyl)-4-phenylthiazole-5-carboxamide]: the IC50 was less than 250 nM.

`O=C(NO)c1sc(-c2ccccc2)cc1-c1ccccc1` [Compound 92, N-hydroxy-3,5-diphenylthiophene-2-carboxamide] had an IC50 of less than 250 nM.

Take `O=C(Cc1ccc(C(F)(F)F)cc1)Nc1ccc(C(=O)NO)c(-c2ccccc2)c1` [Compound 155, N-hydroxy-5-(2-(4-(trifluoromethyl)phenyl)acetamido) biphenyl-2-carboxamide]: the IC50 was less than 250 nM.

Molecule `O=C(NO)c1cn(-c2ccccc2)nc1-c1ccc(F)cc1` [Compound 108, 3-(4-fluorophenyl)-N-hydroxy-1-phenyl-1H-pyrazole-4-carboxamide] yielded an IC50 of 750 to 5000 nM.

Regarding `O=C(Nc1ccccc1Oc1ccccc1)c1ccc(C(=O)NO)c(-c2ccccc2)c1` [compound 105], the IC50 lay in the range of 500 to 750 nM.

As to `COc1cccc(-c2cc(F)ccc2C(=O)NO)c1` [Compound 98, 5-fluoro-N-hydroxy-3′-methoxybiphenyl-2-carboxamidc], the IC50 fell in the range of 500 to 750 nM.

Molecule `CN(Cc1ccccc1)C(=O)OCc1cc(-c2ccccc2)c(C(=O)NO)s1` [Compound 181, (5-(hydroxycarbamoyl)-4-phenylthiophen-2-yl)methyl benzyl(methyl)carbamate] registered an IC50 of less than 250 nM.

Molecule `O=C(Nc1ccc2sc(C(=O)NO)c(-c3ccccc3)c2c1)OCc1ccccc1` [Compound 131, benzyl 2-(hydroxycarbamoyl)-3-phenylbenzo[b] thiophen-5-ylcarbamate] registered a half-inhibitory concentration (IC50) of 500 to 750 nM.

Molecule `O=C(NO)c1sc2ccc(NS(=O)(=O)Cc3ccccc3)cc2c1-c1ccccc1` [Compound 157, N-hydroxy-3-phenyl-5-(phenylmethyl-sulfonamido) benzo[b]thiophene-2-carboxamide] yielded an IC50 of less than 250 nM.

As to `O=C(NO)c1sc(C2CCN(S(=O)(=O)c3ccccc3)CC2)nc1-c1ccccc1` [Compound 151, N-hydroxy-4-phenyl-2-(1-(phenylsulfonyl)piperidin-4-yl)thiazole-5-carboxamide], the IC50 is less than 250 nM.

On to `O=C(NO)c1sc(N2CCCc3ccccc32)nc1-c1ccccc1` [Compound 121, 2-(3,4-dihydroquinolin-1(2H)-yl)-N-hydroxy-4-phenylthiazole-5-carboxamide], for which the IC50 is less than 250 nM.

`O=C(NO)c1sc(-c2cccnc2)nc1-c1ccccc1` [Compound 120, N-hydroxy-4-phenyl-2-(pyridin-3-yl)thiazole-5-carboxamide] returned a half-maximal inhibitory concentration (IC50) of less than 250 nM.

As to `Cc1cscc1-c1ccccc1C(=O)NO` [Compound 24, N-hydroxy-2-(4-mcthylthiophen-3-yl)benzamide], the IC50 was in the range of 750 to 5000 nM.

For the molecule `O=C(NO)c1sc(N2CCCCC2)nc1-c1ccccc1` [Compound 117, N-hydroxy-4-phenyl-2-(piperidin-1-yl)thiazole-5-carboxamide], the IC50 was less than 250 nM.

`COc1cccc(-c2cc(C)ccc2C(=O)NO)c1` [Compound 33, N-hydroxy-3′-methoxy-5-mcthylbiphenyl-2-carboxamide]: the IC50 was in the range of 500 to 750 nM.

In the case of `O=C(NO)c1ccccc1-c1cccc(F)c1` [Compound 27, 3′-fluoro-N-hydroxybiphenyl-2-carboxamide], the IC50 fell in the range of 750 to 5000 nM.

The molecule `O=C(NO)c1sc(-c2ccccc2)nc1-c1ccccc1` [Compound 74, N-hydroxy-2,4-diphenylthiazole-5-carboxamide] registered an IC50 of less than 250 nM.

`COc1cccc(-c2ccc(C(=O)NO)c(-c3cccc(OC)c3)c2)c1` [Compound 50]: the IC50 was in the range of 750 to 5000 nM.

In the case of `O=C(NO)c1sc(C(c2ccccc2)c2ccccc2)nc1-c1ccccc1` [Compound 150, 2-benzhydryl-N-hydroxy-4-phenylthiazole-5-carboxamide], the IC50 was less than 250 nM.

Turning to `O=C(NO)c1sc(COc2ccccc2)cc1-c1ccccc1` [Compound 125, N-hydroxy-5-(phenoxymethyl)-3-phenylthiophene-2-carboxamide], the IC50 was less than 250 nM.

Take `O=C(NO)c1sc(C2CCN(C(=O)c3ccccc3)CC2)nc1-c1ccccc1` [Compound 133, 2-(1-benzoylpiperidin-4-yl)-N-hydroxy-4-phenylthiazole-5-carboxamide]: the IC50 was less than 250 nM.

`CC(=O)Nc1ccc(S(=O)(=O)N2CCC(c3nc(-c4ccccc4)c(C(=O)NO)s3)CC2)cc1` [Compound 158, 2-(1-(4-acetamidophenyl-sulfonyl)piperidin-4-yl)-N-hydroxy-4-phenylthiazole-5-carboxamide] returned an IC50 of less than 250 nM.

`O=C(NO)c1ccccc1-n1cccc1` [Compound 21, N-hydroxy-2-(lH-pyrrol-1-yl)benzamide] returned an IC50 of 750 to 5000 nM.

Molecule `O=C(NO)c1sc(-c2cccs2)nc1-c1ccccc1` [Compound 140, N-hydroxy-4-phenyl-2-(thiophen-2-yl)thiazole-5-carboxamide] returned a half-maximal inhibitory concentration (IC50) of 500 to 750 nM.

Take `CCOC(=O)N1CCC(c2nc(-c3ccccc3)c(C(=O)NO)s2)CC1` [Compound 147, ethyl 4-(5-(hydroxycarbamoyl)-4-phenylthiazol-2-yl)piperidine-1-carboxylate]: the IC50 is less than 250 nM.

In the case of `O=C(NCc1ccccc1)OCc1cc(-c2ccccc2)c(C(=O)NO)s1` [Compound 180, (5-(hydroxycarbamoyl)-4-phenylthiophen-2-yl)methyl benzylcarbamate], the 50% inhibitory concentration (IC50) is less than 250 nM.

`CN(Cc1ccccc1)Cc1cc(-c2ccccc2)c(C(=O)NO)s1` [Compound 182, 5-((benzyl(methyl)amino)methyl)-N-hydroxy-3-phenylthiophene-2-carboxamide] had an IC50 of less than 250 nM.

On to `O=C(NO)c1sc2ccc(NS(=O)(=O)c3ccccc3)cc2c1-c1ccccc1` [Compound 126, N-hydroxy-3-phenyl-5-(phenylsulfonamido) benzo[b] thiophene-2-carboxamide], for which the IC50 fell in the range of 500 to 750 nM.

The molecule `O=C(NO)c1sc(C2CCN(CCc3c[nH]c4ccccc34)CC2)nc1-c1ccccc1` [Compound 152, 2-(1-(2-(1H-indol-3-yl)ethyl)piperidin-4-yl)-N-hydroxy-4-phenylthiazole-5-carboxamide] returned a 50% inhibitory concentration (IC50) of less than 250 nM.

In turn, `O=C(NO)c1cnc(-c2ccccc2)nc1-c1ccccc1` [Compound 141, N-hydroxy-2,4-diphenylpyrimidine-5-carboxamide] returned a half-maximal inhibitory concentration (IC50) of 250 to 500 nM.
